Experimental data: US20110152313A1 (MACQUARIE UNIVERSITY, priority 2008, published 2011)

How the values were obtained:
Experiment in all cases: kinase binding screen (kinase-tagged T7 phage, qPCR), % Ctrl
[1] = biological target: AAK1 (Homo sapiens, UniProt Q2M2I8)
Protocol: (§1) Percentage kinase inhibition at a set concentration was performed by methods well known in the prior art (Fabian, M. A. et al. Nat. Biotechnol. 2005, 23, 329; Karaman et al. (2008) Nat. Biotechnol. […], 26, 127). Briefly, kinase-tagged T7 phage strains were grown in parallel in 24-well blocks in an E. coli host derived from the BL21 strain. E. coli were grown to log-phase and infected with T7 phage from a frozen stock (multiplicity of infection=0.4) and incubated with shaking at 32° C. until lysis (90-150 minutes). The lysates were centrifuged (6,000×g) and filtered (0.2 μm) to remove cell debris. […] The liganded beads were blocked with excess biotin and washed with blocking buffer (SeaBlock (Pierce); 1% BSA, 0.05% Tween 20, 1 mM DTT) to remove unbound ligand and to reduce non-specific phage binding. […] Test compounds were prepared as 40× stocks in 100% DMSO and directly diluted into the assay. All reactions were performed in polypropylene 384-well plates in a final volume of 0.04 mL. […] The kinase concentration in the eluates was measured by qPCR.

[2] = biological target: CAMKK2 (Homo sapiens, UniProt Q96RR4)
Protocol: as §1

[3] = biological target: CLK4 (Homo sapiens, UniProt Q9HAZ1)
Protocol: as §1

[4] = biological target: T1, DYRK2 (Homo sapiens, UniProt Q92630)
T1 sequence (Q92630 1-601): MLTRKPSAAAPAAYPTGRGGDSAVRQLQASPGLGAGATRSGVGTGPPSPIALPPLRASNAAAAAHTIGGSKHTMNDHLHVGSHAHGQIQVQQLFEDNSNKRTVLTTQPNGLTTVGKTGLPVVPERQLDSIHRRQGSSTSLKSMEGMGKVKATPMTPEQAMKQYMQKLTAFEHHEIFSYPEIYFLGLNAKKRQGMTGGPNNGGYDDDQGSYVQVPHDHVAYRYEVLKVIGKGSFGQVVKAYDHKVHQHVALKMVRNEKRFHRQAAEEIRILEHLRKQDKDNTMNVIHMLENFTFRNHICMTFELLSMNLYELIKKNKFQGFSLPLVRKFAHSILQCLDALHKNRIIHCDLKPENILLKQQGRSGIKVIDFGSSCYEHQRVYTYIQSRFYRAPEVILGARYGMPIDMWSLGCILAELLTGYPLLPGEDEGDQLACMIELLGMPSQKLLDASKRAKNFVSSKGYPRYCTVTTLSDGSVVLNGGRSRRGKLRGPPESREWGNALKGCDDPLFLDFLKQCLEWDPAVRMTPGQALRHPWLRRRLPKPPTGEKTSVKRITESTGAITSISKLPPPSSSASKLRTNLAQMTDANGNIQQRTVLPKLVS
Protocol: as §1

[5] = biological target: T2, GRK1 (Homo sapiens, UniProt Q15835)
T2 sequence (Q15835 1-563): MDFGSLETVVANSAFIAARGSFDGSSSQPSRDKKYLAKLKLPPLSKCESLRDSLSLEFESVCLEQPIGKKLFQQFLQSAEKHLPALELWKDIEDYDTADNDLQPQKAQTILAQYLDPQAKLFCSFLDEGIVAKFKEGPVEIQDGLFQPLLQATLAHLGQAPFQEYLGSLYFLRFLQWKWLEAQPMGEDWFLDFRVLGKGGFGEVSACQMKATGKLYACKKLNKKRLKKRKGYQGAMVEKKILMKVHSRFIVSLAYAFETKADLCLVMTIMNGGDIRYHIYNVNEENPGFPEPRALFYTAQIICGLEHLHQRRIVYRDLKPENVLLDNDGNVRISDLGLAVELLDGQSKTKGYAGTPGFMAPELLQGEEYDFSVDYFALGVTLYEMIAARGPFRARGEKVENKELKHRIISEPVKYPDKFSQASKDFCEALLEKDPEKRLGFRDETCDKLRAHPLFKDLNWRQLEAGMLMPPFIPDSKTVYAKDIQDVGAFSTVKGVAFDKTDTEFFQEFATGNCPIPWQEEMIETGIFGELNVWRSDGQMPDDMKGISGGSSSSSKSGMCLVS
Protocol: as §1

[6] = biological target: T3, PLK4 (Homo sapiens, UniProt O00444)
T3 sequence (O00444 1-970): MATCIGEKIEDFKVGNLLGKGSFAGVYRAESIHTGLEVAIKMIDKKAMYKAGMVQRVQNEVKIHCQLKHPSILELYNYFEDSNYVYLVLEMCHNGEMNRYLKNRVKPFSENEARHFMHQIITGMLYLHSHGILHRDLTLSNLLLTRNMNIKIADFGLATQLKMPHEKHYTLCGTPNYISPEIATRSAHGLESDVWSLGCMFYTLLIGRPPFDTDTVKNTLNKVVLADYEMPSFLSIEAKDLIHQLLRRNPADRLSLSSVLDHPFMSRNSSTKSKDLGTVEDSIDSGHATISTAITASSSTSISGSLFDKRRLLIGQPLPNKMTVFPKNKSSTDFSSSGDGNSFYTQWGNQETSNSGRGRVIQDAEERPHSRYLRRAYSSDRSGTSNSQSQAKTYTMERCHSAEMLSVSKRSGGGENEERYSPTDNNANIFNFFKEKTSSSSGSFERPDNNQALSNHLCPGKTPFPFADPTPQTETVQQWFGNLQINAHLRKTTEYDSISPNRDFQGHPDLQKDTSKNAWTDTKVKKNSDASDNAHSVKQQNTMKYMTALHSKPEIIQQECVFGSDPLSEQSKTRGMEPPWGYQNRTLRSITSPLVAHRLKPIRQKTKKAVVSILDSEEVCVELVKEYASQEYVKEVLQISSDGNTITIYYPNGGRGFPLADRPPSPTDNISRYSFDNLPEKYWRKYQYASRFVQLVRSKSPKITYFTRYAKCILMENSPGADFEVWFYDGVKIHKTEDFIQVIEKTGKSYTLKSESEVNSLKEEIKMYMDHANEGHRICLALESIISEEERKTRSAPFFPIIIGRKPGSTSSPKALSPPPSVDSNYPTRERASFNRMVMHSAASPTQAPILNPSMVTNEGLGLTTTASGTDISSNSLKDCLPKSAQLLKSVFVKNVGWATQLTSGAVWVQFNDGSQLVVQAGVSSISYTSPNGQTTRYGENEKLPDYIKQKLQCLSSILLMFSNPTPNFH
Protocol: as §1

[7] = biological target: ROCK2 (Homo sapiens, UniProt O75116)
Protocol: as §1

AAK1, sequence (Q2M2I8 whole entry): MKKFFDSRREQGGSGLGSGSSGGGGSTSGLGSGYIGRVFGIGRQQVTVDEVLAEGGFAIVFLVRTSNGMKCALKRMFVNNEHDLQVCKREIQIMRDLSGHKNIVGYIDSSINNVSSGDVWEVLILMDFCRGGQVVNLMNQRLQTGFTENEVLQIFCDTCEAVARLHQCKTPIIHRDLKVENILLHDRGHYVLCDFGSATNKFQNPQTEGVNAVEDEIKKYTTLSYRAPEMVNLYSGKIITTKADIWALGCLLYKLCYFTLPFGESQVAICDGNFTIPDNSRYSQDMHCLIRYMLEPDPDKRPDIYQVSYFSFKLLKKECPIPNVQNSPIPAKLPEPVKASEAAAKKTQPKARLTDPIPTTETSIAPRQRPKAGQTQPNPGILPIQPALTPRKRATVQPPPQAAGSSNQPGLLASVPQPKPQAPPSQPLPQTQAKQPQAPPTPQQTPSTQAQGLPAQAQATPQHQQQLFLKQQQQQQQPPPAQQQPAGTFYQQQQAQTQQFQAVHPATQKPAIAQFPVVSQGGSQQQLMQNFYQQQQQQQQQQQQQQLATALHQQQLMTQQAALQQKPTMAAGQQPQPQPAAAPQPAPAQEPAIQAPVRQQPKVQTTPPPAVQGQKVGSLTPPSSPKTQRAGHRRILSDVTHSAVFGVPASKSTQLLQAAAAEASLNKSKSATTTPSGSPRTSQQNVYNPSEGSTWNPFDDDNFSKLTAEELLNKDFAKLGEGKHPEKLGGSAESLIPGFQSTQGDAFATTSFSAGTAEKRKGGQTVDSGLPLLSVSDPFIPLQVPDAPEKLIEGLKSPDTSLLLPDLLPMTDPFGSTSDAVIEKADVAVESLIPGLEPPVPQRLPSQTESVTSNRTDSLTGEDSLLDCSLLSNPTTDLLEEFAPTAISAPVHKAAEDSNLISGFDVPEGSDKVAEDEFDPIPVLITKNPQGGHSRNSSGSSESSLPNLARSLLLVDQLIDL
CAMKK2, sequence (Q96RR4 whole entry): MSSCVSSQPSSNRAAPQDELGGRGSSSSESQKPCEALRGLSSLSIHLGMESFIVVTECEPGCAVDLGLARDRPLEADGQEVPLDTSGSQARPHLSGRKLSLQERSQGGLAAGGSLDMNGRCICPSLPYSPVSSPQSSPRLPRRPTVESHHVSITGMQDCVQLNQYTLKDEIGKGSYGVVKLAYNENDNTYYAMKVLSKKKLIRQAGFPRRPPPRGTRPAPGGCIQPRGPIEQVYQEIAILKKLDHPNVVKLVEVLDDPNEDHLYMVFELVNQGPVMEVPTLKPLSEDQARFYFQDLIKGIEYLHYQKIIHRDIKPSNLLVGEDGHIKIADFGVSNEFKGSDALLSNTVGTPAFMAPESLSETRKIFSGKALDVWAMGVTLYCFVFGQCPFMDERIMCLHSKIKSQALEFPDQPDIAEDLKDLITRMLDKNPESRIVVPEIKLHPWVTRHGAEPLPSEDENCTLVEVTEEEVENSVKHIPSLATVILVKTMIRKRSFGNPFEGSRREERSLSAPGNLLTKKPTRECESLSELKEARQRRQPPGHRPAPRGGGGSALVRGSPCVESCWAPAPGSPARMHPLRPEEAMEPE
CLK4, sequence (Q9HAZ1 whole entry, species assumed): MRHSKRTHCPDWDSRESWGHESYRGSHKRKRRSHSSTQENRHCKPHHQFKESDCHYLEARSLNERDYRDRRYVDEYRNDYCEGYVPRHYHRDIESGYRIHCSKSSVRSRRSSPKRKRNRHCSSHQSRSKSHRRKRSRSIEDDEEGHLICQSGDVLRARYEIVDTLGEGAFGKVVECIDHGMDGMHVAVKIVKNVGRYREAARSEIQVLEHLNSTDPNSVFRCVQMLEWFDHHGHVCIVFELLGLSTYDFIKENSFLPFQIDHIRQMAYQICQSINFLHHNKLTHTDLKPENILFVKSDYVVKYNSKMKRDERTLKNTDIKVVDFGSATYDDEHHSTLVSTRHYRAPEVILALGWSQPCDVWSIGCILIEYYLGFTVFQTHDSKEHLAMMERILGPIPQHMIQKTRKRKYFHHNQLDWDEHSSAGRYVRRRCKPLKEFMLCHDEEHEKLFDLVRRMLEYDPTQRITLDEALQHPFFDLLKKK
ROCK2, sequence (O75116 whole entry, species assumed): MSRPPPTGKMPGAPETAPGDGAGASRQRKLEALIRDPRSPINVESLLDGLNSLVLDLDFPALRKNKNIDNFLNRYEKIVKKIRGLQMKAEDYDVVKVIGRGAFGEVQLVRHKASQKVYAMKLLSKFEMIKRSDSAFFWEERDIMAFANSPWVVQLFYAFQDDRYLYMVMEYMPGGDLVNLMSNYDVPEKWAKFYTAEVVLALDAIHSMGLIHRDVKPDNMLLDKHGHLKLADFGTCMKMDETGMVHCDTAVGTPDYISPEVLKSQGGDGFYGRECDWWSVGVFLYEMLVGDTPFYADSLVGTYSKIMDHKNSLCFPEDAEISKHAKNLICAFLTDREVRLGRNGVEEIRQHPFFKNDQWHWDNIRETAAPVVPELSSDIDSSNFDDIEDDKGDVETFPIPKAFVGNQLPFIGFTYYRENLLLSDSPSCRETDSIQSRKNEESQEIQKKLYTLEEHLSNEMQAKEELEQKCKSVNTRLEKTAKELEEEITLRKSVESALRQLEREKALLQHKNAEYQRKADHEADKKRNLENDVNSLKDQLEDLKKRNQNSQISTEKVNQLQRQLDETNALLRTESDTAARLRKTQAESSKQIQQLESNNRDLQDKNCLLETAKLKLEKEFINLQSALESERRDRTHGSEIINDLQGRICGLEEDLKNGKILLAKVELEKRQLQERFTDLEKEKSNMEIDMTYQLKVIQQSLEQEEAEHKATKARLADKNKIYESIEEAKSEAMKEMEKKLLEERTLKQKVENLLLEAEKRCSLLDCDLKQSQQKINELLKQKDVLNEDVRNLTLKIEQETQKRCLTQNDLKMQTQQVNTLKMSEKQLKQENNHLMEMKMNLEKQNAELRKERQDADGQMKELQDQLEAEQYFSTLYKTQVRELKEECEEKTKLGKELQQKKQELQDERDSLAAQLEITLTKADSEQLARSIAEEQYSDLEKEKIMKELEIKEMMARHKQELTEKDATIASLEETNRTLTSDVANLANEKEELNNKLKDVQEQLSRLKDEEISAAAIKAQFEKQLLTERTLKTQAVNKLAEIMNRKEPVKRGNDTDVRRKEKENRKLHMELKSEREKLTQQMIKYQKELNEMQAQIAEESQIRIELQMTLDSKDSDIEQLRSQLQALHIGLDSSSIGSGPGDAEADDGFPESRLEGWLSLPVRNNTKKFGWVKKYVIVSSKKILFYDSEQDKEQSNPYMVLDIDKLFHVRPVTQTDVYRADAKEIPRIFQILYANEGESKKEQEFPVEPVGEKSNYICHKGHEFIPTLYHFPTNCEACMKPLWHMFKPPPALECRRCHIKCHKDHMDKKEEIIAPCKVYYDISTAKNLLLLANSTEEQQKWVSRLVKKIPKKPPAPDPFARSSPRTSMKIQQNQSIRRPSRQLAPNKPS

remaining activity at 10 µM ([1]; 10 μM) | remaining activity at 10 µM ([2]; 10 μM) | remaining activity at 10 µM ([3]; 10 μM) | remaining activity at 10 µM ([4]; 10 μM) | remaining activity at 10 µM ([5]; 10 μM) | remaining activity at 10 µM ([6]; 10 μM) | remaining activity at 10 µM ([7]; 10 μM) | SMILES | remaining activity at 1 µM [1] | remaining activity at 1 µM [2] | remaining activity at 1 µM [3] | remaining activity at 1 µM [4] | remaining activity at 1 µM [5] | remaining activity at 1 µM [6] | remaining activity at 1 µM [7]
83% | 83% | 11% | 4.4% | 85% | 65% | 38% | Nc1nc2c(-c3cc(Br)c(Br)[nH]3)nccc2[nH]1 [Ageladine A, ageladine A, reference compound] | 90% | 90% | 51% | 35% | 80% | 81% | 65%
– | – | – | – | – | – | – | Nc1nc2c(-c3ccccn3)nccc2[nH]1 [drawing 35, 4-(pyrid-2-yl)-1H-imidazo[4,5-c]pyridin-2-amine] | 27% | 35% | 60% | 41% | 49% | 55% | 45%
– | – | – | – | – | – | – | Nc1nc2c(-c3cnc4ccccc4c3)nccc2[nH]1 [drawing 36, 4-(quinolin-3-yl)-1H-imidazo[4,5-c]pyridin-2-amine] | 83% | 100% | 65% | 56% | 86% | 100% | 100%
